Earlier results in US8858979B1, “Service induced byproducts for localized drug delivery in orthopaedic implants” (Clemson University, priority 2011, dated 2014).

System: cell proliferation
Conditions: reported data, estimated

NCCCC(O)(P(=O)([O-])O)P(=O)(O)O.[Na+] [alendronate, alendronate sodium]
concentration that can inhibit cell proliferation: about 10^−4 M
